Each block holds one compound with its values, some of them ahead of it.
Molecular target: T1, KRas-G12D (Homo sapiens, UniProt P01116, G12D)
T1 construct: insert the HiBiT tag onto the N-terminus of one or more of the endogenous KRas alleles; host or cells: AsPC-1 HiBiT-KRasG12D knock-in clone (one tagged allele, two untagged KRasG12D alleles)
Experiment: HiBiT Degradation Assay (G12D), AsPC-1 HiBiT-KRasG12D cells, 24 hr
Assay type: cell-based
Details: for Dmax: ASPC1, AsPC-1 cells, maximum degradation observed; for DC50: AsPC-1 cells
Protocol: AsPC-1 (CRL-1682) cells were purchased from ATCC and are homozygous for the G12D mutation in KRas. AsPC-1 cells were cultured in GIBCO RPMI-1640 (ThermoFisher Scientific, catalog #61870-036, with Glutamax, no HEPES, no Na Pyruvate) supplemented with 10% FBS (ThermoFisher Scientific, catalog #2060357) and 1× Penicillin-Streptomycin (ThermoFisher Scientific, catalog #15140122, 10000 U/ml, 100×). For degradation assays, 384 well plates were used. Alamar blue was purchased from ThermoFisher Scientific (A50101) and used according to manufacturer instructions. The Nano-Glo® HiBiT Lytic Detection System and Nano-Glo® HiBiT Blotting System were purchased from Promega (#N3050 and #N2410) and used according to manufacturer instructions.
To create the AsPC-1 HiBiT-KRasG12D cell line, CRISPR-Cas9 was used to insert the HiBiT tag onto the N-terminus of one or more of the endogenous KRas alleles. See Schwinn, M. K. et al. (2018) CRISPR-mediated tagging of endogenous proteins with a luminescent peptide, ACS Chem. Biol. 13(2), 467-474. After knock-in of the tag, individual clones were isolated by single cell dilution and screened for HiBiT insertion by PCR. A clone was identified that contained the desired HiBiT-KRasG12D sequence at one allele while the remaining two KRasG12D alleles were untagged. This clone was used in further studies.
AsPC-1 HiBiT-KRasG12D cells were plated at 9000 or 15,000 cells/well in a 384 well plate (Corning #3770). Compounds of the present disclosure and positive controls were diluted in the appropriate cell media and applied to the plated cells resulting in a final concentration titration of 10 μM to […] in 0.5% DMSO. Gambogic acid was used as a positive control for cytotoxicity and titrated from 10 μM to 78 nM. All assays were performed in triplicate. Cells were treated with compounds for 24 hr at 37° C. in an incubator containing 5% CO2. Following treatment, alamar blue was used to determine if any compounds led to a loss in cell viability after 24 hr. The 10× alamar blue reagent was added to a final concentration of 1× as recommended by the manufacturer and cells were returned to the incubator for 4 hr. Plates were then allowed to equilibrate to RT and fluorescence was measured using a Perkin-Elmer EnVision. After completion of the fluorescence read, the liquid from each well was removed and the cells were washed with PBS. The Nano-Glo® HiBiT detection reagent was prepared according to the manufacturer's instructions and added to each well after the PBS wash was removed. Following incubation at room temperature for 45 min, the luminescence was read using the ultra-sensitive luminescence aperture on the Envision instrument.
Fluorescence values from the alamar blue treatment were normalized to the DMSO-only control for each compound titration. HiBiT luminescence was normalized to the DMSO-only control and the fractional HiBiT signal was plotted versus the log of the PROTAC concentration and fit to a 4-parameter dose-response model to obtain the concentration of the compound that leads to half maximal degradation (DC50) as well as the maximum degradation observed (Dmax, conventionally expressed as a percentage of control).

T1 sequence (P01116 1-188 isoform P01116-2 G12D): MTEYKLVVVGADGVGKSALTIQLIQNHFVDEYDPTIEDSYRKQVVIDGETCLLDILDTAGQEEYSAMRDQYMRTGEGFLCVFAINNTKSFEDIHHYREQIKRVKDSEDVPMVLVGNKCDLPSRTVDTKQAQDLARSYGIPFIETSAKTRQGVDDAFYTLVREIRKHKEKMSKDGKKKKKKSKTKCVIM

Compound: C#Cc1c(F)ccc2cc(O)cc(-c3ncc4c(N5CC6CCC(C5)N6)nc(OCC5(CN6CCN(CC7CCN(c8ccc9c(c8)n(C)c(=O)n9C8CCC(=O)NC8=O)CC7)CC6)CC5)nc4c3F)c12 (stereo not drawn) [Compound 188, 3-{5-[4-({4-[(1-{[(4-{3,8-diazabicyclo[3.2.1]octan-3-yl}-7-(8-ethynyl-7-fluoro-3-hydroxynaphthalen-1-yl)-8-fluoropyrido[4,3-d]pyrimidin-2-yl)oxy]methyl}cyclopropyl)methyl]piperazin-1-yl}methyl)piperidin-1-yl]-3-methyl-2-oxo-2,3-dihydro-1H-1,3-benzodiazol-1-yl}piperidine-2,6-dione]
Dmax: > 70% | DC50: < 5.1 µM

DC50: < 5.1 µM
Compound: C#Cc1c(F)ccc2cc(O)cc(-c3ncc4c(N5CC6CCC(C5)N6)nc(OCCN5CCC(CC6CCN(CC7(F)CCN(c8cccc9c8CN(C8CCC(=O)NC8=O)C9=O)CC7)CC6)CC5)nc4c3F)c12 (stereo not drawn) [Compound 125, 3-{4-[4-({4-[(1-{2-[(4-{3,8-diazabicyclo[3.2.1]octan-3-yl}-7-(8-ethynyl-7-fluoro-3-hydroxynaphthalen-1-yl)-8-fluoropyrido[4,3-d]pyrimidin-2-yl)oxy]ethyl}piperidin-4-yl)methyl]piperidin-1-yl}methyl)-4-fluoropiperidin-1-yl]-1-oxo-2,3-dihydro-1H-isoindol-2-yl}piperidine-2,6-dione]

DC50: 0.25 to 1 µM
Compound: CCc1cccc2cc(O)cc(-c3ncc4c(N5CC6CCC(C5)N6)nc(OCCN5CCC(COCC6CCN(c7ccc8c(c7)C(=O)N(C7CCC(=O)NC7=O)C8=O)CC6)CC5)nc4c3F)c12 (stereo not drawn) [Compound 26]

Compound: C#Cc1c(F)ccc2cc(O)cc(-c3ncc4c(N5CC6CCC(C5)N6)nc(OC[C@@H]5C[C@@H](OC6CCN(CC7CCN(c8ccc9c(c8F)CN(C8CCC(=O)NC8=O)C9=O)CC7)CC6)CN5C)nc4c3F)c12 (stereo partly drawn) [Compound 122, 3-(5-{4-[(4-{[(3R,5S)-5-{[(4-{3,8-diazabicyclo[3.2.1]octan-3-yl}-7-(8-ethynyl-7-fluoro-3-hydroxynaphthalen-1-yl)-8-fluoropyrido[4,3-d]pyrimidin-2-yl)oxy]methyl}-1-methylpyrrolidin-3-yl]oxy}piperidin-1-yl)methyl]piperidin-1-yl}-4-fluoro-1-oxo-2,3-dihydro-1H-isoindol-2-yl)piperidine-2,6-dione]
Dmax: > 70% | DC50: < 5.1 µM

Compound: C#Cc1c(F)ccc2cc(O)cc(-c3ncc4c(N5CC6CCC(C5)N6)nc(OCCN5CCC(CN6CCC(CC7CCN(c8ccc9c(c8)n(C)c(=O)n9C8CCC(=O)NC8=O)CC7)CC6)CC5)nc4c3F)c12 (stereo not drawn) [Compound 82, 3-{5-[4-({1-[(1-{2-[(4-{3,8-diazabicyclo[3.2.1]octan-3-yl}-7-(8-ethynyl-7-fluoro-3-hydroxynaphthalen-1-yl)-8-fluoropyrido[4,3-d]pyrimidin-2-yl)oxy]ethyl}piperidin-4-yl)methyl]piperidin-4-yl}methyl)piperidin-1-yl]-3-methyl-2-oxo-2,3-dihydro-1H-1,3-benzodiazol-1-yl}piperidine-2,6-dione]
Dmax: > 70% | DC50: < 5.1 µM

Compound: C#Cc1c(F)ccc2cc(O)cc(-c3ncc4c(N5CC6CCC(C5)N6)nc(OCCN5CCC(CC6CCN(CC7CCN(c8ccc9c(c8F)CN([C@@H]8CCC(=O)NC8=O)C9=O)CC7)CC6)CC5)nc4c3F)c12 [Compound 163, (3R)-3-{5-[4-({4-[(1-{2-[(4-{3,8-diazabicyclo[3.2.1]octan-3-yl}-7-(8-ethynyl-7-fluoro-3-hydroxynaphthalen-1-yl)-8-fluoropyrido[4,3-d]pyrimidin-2-yl)oxy]ethyl}piperidin-4-yl)methyl]piperidin-1-yl}methyl)piperidin-1-yl]-4-fluoro-1-oxo-2,3-dihydro-1H-isoindol-2-yl}piperidine-2,6-dione]
Dmax: > 70% | DC50: < 5.1 µM

Compound: O=C1CCC(N2Cc3c(ccc(N4CCC(CN5CCC(CC6CCN(CCOc7nc(N8CC9CCC(C8)N9)c8cnc(-c9cc(O)cc(Cl)c9C9CC9)c(F)c8n7)CC6)CC5)CC4)c3F)C2=O)C(=O)N1 (stereo not drawn) [Compound 142]
Dmax: > 70% | DC50: < 5.1 µM

From patent US12448399B2, “Cereblon-based KRAS degrading PROTACs and uses related thereto” (Arvinas Operations, Inc., priority 2023, dated 2025)
